Experimental data taken from patent publication US9981973B2, “Tricyclic compounds as inhibitors of immunosuppression mediated by tryptophan metabolization” (NewLink Genetics Corporation, priority 2013, dated 2018).

Biological target: purified human TDO protein (Homo sapiens (Human), UniProt P48775)
Assay: Enzymatic TDO assay
Type: biochemical
Method: Differently from the IDO activity assay, no methylene blue is added to the assay. The inhibitors were initially diluted in DMSO at 100 mM and were diluted in potassium phosphate 50 mM, added to the reaction mixture at final concentrations raging from 30 μM to 5 nM and preincubated with the enzyme for 5 min at 25° C. The reaction was started by addition of L-tryptophan to 20 μM and incubated 15 min at 37° C. The reaction was stopped by addition of 0.5 vol of 30% trichloroacetic acid and incubated 30 min at 60° C. to hydrolyze N-formylkynurenine to kynurenine. The reaction was centrifuged at 3400 g for 5 min to remove precipitated protein and the supernatant was reacted with 2% (w/v) of p-dimethylaminobenzaldehyde in acetic acid. The reaction was incubated 10 min at 25° C. and read at 480 nm in a spectrophotometer. Control samples with no TDO inhibitor, or with no TDO enzyme were used as controls to set the parameters for the non-linear regressions necessary for determination of the IC50 for each compound. Nonlinear regressions and determination of the IC50 values were performed using the GraphPad Prism 4 software.

Chain of purified human TDO protein (P48775 whole entry): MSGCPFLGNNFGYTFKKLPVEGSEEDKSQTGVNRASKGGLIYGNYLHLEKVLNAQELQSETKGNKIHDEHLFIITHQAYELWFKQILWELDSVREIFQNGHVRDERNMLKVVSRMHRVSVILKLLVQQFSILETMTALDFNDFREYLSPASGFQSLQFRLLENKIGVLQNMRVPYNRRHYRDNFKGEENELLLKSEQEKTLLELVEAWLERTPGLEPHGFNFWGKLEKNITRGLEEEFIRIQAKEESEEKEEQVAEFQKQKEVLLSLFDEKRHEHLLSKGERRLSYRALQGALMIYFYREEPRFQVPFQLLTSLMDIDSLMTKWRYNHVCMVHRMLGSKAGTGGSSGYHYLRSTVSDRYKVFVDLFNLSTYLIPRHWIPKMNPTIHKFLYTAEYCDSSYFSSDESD

O=C(CC1c2ccccc2-c2nncn21)C1CCCCC1 (stereo not drawn) [Compound 43, 2-(5H-[1,2,4]triazolo[3,4-a]isoindol-5-yl)-1-cyclohexylethan-1-one]
IC50: > 10 µM

O=C(CC1c2ccccc2-c2cnnn21)C1CCC(F)(F)CC1 (stereo not drawn) [Compound 54, 2-(8H-[1,2,3]triazolo[5,1-a]isoindol-8-yl)-1-(4,4-difluorocyclohexyl)ethan-1-one]
IC50: > 10 µM

OC(CC1c2ccccc2-c2nncn21)C1CCCCC1 (stereo not drawn) [Compound 69, 2-(5H-[1,2,4]triazolo[3,4-a]isoindol-5-yl)-1-cyclohexylethan-1-ol]
IC50: > 10 µM
